Experiments:
Assay type in all cases: in vivo
[1] = system: ragweed (common ragweed, Ambrosia elatior); assay: Test A preemergence, ragweed; details: Preemergence, 0 to 100 scale (0 no effect, 100 complete control)
Outline: (§1)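 Ratings run 0–100, where 100 is complete control, and were scored visually against untreated plants about 10 days after treatment under greenhouse conditions. Formulated chemicals were sprayed either onto the soil surface after seeding (preemergence) or onto one- to two-leaf seedlings 2–10 cm high (postemergence).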

[2] = system: barnyardgrass (Echinochloa crus-galli); assay: Test A postemergence, barnyardgrass
Outline: as §1

[3] = system: foxtail, giant (giant foxtail, Setaria faberii); assay: Test A postemergence, giant foxtail
Outline: as §1

[4] = system: wheat (Triticum aestivum); assay: Test A postemergence, wheat
Outline: as §1

kochia (Kochia scoparia) [5] = assay: Test A preemergence, kochia; details: Preemergence, 0 to 100 scale (0 no effect, 100 complete control)
Outline: as §1

corn (Zea mays) = assay: Test A postemergence, corn
Outline: as §1

[6] = system: barnyardgrass (Echinochloa crus-galli); assay: Test B flooded paddy test, barnyardgrass; details: 250 g ai/ha, Flood; visual rating after 13 to 15 days; scale 0 to 100, 0 is no effect, 100 is complete control
Outline: (§2)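 Plants grown to 2-leaf stage, pots flooded to 3 cm above soil and compound applied directly to paddy water, depth maintained throughout. After 13-15 days in greenhouse, visual rating against untreated controls on 0-100 scale (0 no effect, 100 complete control).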

[7] = system: barnyardgrass (Echinochloa crus-galli); assay: Test A preemergence, barnyardgrass; details: Preemergence, 0 to 100 scale (0 no effect, 100 complete control)
Outline: as §1

[8] = system: blackgrass (Alopecurus myosuroides); assay: Test A postemergence, blackgrass
Outline: as §1

[9] = system: pigweed (Amaranthus retroflexus); assay: Test A postemergence, pigweed
Outline: as §1

kochia (Kochia scoparia) [10] = assay: Test A postemergence, kochia
Outline: as §1

[11] = system: sedge, umbrella (small-flower umbrella sedge, Cyperus difformis); assay: Test B flooded paddy test, umbrella sedge; details: 250 g ai/ha, Flood; visual rating after 13 to 15 days; scale 0 to 100, 0 is no effect, 100 is complete control
Outline: as §2

[12] = system: galium (catchweed bedstraw, Galium aparine); assay: Test A postemergence, galium
Outline: as §1

[13] = system: foxtail, giant (giant foxtail, Setaria faberii); assay: Test A preemergence, giant foxtail; details: Preemergence, 0 to 100 scale (0 no effect, 100 complete control)
Outline: as §1

[14] = system: ryegrass, Italian (Italian ryegrass, Lolium multiflorum); assay: Test A postemergence, Italian ryegrass
Outline: as §1

[15] = system: ryegrass, Italian (Italian ryegrass, Lolium multiflorum); assay: Test A preemergence, Italian ryegrass; details: Preemergence, 0 to 100 scale (0 no effect, 100 complete control)
Outline: as §1

[16] = system: pigweed (Amaranthus retroflexus); assay: Test A preemergence, pigweed; details: Preemergence, 0 to 100 scale (0 no effect, 100 complete control)
Outline: as §1

[17] = system: ragweed (common ragweed, Ambrosia elatior); assay: Test A postemergence, ragweed
Outline: as §1

rice (Oryza sativa) = assay: Test B flooded paddy test, rice; details: 250 g ai/ha, Flood; visual rating after 13 to 15 days; scale 0 to 100, 0 is no effect, 100 is complete control
Outline: as §2

[18] = system: ducksalad (Heteranthera limosa); assay: Test B flooded paddy test, ducksalad; details: 250 g ai/ha, Flood; visual rating after 13 to 15 days; scale 0 to 100, 0 is no effect, 100 is complete control
Outline: as §2

[19] = 31 g ai/ha, postemergence, 0 to 100 scale, 0 is no effect, 100 is complete control, approximately 10 days
[20] = 125 g ai/ha, postemergence, 0 to 100 scale, 0 is no effect, 100 is complete control, approximately 10 days
[21] = Postemergence, 31 g ai/ha, 0 to 100 scale (0 no effect, 100 complete control)
[22] = 500 g ai/ha, postemergence, 0 to 100 scale, 0 is no effect, 100 is complete control, approximately 10 days

Row | Compound | Plant response rating, Ragweed ([1]; 125 g ai/ha) | Plant response rating, Barnyardgrass [2, 20] | Plant response rating, Foxtail, Giant [3, 20] | Plant response rating, Wheat [4, 20] | Plant response rating, Kochia (kochia (Kochia scoparia) [5]; 125 g ai/ha) | Plant response rating, Corn (corn (Zea mays); [20]) | Plant response rating, Barnyardgrass [6] | Plant response rating, Barnyardgrass ([7]; 125 g ai/ha) | Plant response rating, Blackgrass [8, 20] | Plant response rating, Pigweed [9, 20] | Plant response rating, Kochia (kochia (Kochia scoparia) [10]; [20]) | Plant response rating, Sedge, Umbrella [11] | Plant response rating, Galium [12, 20] | Plant response rating, Foxtail, Giant ([13]; 125 g ai/ha) | Plant response rating, Ryegrass, Italian [14, 20] | Plant response rating, Ryegrass, Italian ([15]; 125 g ai/ha) | Plant response rating, Pigweed ([16]; 125 g ai/ha) | Plant response rating, Ragweed [17, 20] | Plant response rating, Rice (rice (Oryza sativa)) | Plant response rating, Ducksalad [18] | other results
1 | N#Cc1cccc(Oc2ncc(F)cn2)c1OC/C=C/C(F)(F)F [Compound 39] | 10 | 40 | 90 | 20 | 100 | 50 | 30 | 100 | 60 | 100 | 90 | 100 | 60 | 100 | 50 | 20 | 100 | 10 | 15 | 65 | Plant response rating, Ragweed ([1]; 31 g ai/ha): 0; Plant response rating, Barnyardgrass [2, 19]: 20; Plant response rating, Foxtail, Giant [3, 19]: 20; Plant response rating, Wheat [4, 19]: 0; Plant response rating, Kochia (kochia (Kochia scoparia) [5]; 31 g ai/ha): 60; Plant response rating, Corn (corn (Zea mays); [19]): 20; Plant response rating, Barnyardgrass ([7]; 31 g ai/ha): 50; Plant response rating, Blackgrass [8, 19]: 10; Plant response rating, Pigweed [9, 19]: 90; Plant response rating, Kochia (kochia (Kochia scoparia) [10]; [19]): 90; Plant response rating, Galium [12, 19]: 20; Plant response rating, Foxtail, Giant ([13]; 31 g ai/ha): 90; Plant response rating, Ryegrass, Italian [14, 19]: 0; Plant response rating, Ryegrass, Italian ([15]; 31 g ai/ha): 0; Plant response rating, Pigweed ([16]; 31 g ai/ha): 100; Plant response rating, Ragweed [17, 19]: 0
2 | Cc1cccc(Oc2ncc(Cl)cn2)c1OCCCF [Compound 57] | 0 | 0 | 10 | 0 | 20 | 10 | 0 | 20 | 0 | 20 | 20 | 30 | 0 | 30 | 0 | 0 | 60 | 0 | 0 | 70 | Plant response rating, Ragweed ([1]; 31 g ai/ha): 0; Plant response rating, Barnyardgrass [2, 19]: 0; Plant response rating, Foxtail, Giant [3, 19]: 0; Plant response rating, Wheat [4, 19]: 0; Plant response rating, Kochia (kochia (Kochia scoparia) [5]; 31 g ai/ha): 0; Plant response rating, Corn (corn (Zea mays); [19]): 0; Plant response rating, Barnyardgrass ([7]; 31 g ai/ha): 0; Plant response rating, Blackgrass [8, 19]: 0; Plant response rating, Pigweed [9, 19]: 10; Plant response rating, Kochia (kochia (Kochia scoparia) [10]; [19]): 0; Plant response rating, Galium [12, 19]: 0; Plant response rating, Foxtail, Giant ([13]; 31 g ai/ha): 0; Plant response rating, Ryegrass, Italian [14, 19]: 0; Plant response rating, Ryegrass, Italian ([15]; 31 g ai/ha): 0; Plant response rating, Pigweed ([16]; 31 g ai/ha): 0; Plant response rating, Ragweed [17, 19]: 0
3 | Cl/C=C/COc1c(I)cccc1Oc1ncc(Cl)cn1 [Compound 68] | 0 | 100 | 80 | 0 | 30 | 30 | 40 | 70 | 60 | 100 | 100 | 100 | 60 | 100 | 30 | 20 | 100 | 20 | 10 | 100 | Plant response rating, Ragweed ([1]; 31 g ai/ha): 0; Plant response rating, Barnyardgrass [2, 21]: 60; Plant response rating, Foxtail, Giant [3, 21]: 30; Plant response rating, Wheat [4, 21]: 0; Plant response rating, Kochia (kochia (Kochia scoparia) [5]; 31 g ai/ha): 0; Plant response rating, Corn (corn (Zea mays); [21]): 20; Plant response rating, Barnyardgrass ([7]; 31 g ai/ha): 70; Plant response rating, Blackgrass [8, 21]: 20; Plant response rating, Pigweed [9, 21]: 80; Plant response rating, Kochia (kochia (Kochia scoparia) [10]; [21]): 90; Plant response rating, Galium [12, 21]: 50; Plant response rating, Foxtail, Giant ([13]; 31 g ai/ha): 70; Plant response rating, Ryegrass, Italian [14, 21]: 0; Plant response rating, Ryegrass, Italian ([15]; 31 g ai/ha): 0; Plant response rating, Pigweed ([16]; 31 g ai/ha): 0; Plant response rating, Ragweed [17, 21]: 0
4 | FC(F)(F)CCCOc1c(Cl)cccc1Oc1ncc(Cl)cn1 [Compound 46] | 0 | 30 | 60 | 0 | 80 | 20 | 0 | 80 | 40 | 90 | 80 | 100 | 70 | 100 | 10 | 10 | 100 | 10 | 0 | 98 | Plant response rating, Ragweed ([1]; 31 g ai/ha): 0; Plant response rating, Barnyardgrass [2, 19]: 0; Plant response rating, Foxtail, Giant [3, 19]: 20; Plant response rating, Wheat [4, 19]: 0; Plant response rating, Kochia (kochia (Kochia scoparia) [5]; 31 g ai/ha): 0; Plant response rating, Corn (corn (Zea mays); [19]): 10; Plant response rating, Barnyardgrass ([7]; 31 g ai/ha): 10; Plant response rating, Blackgrass [8, 19]: 0; Plant response rating, Pigweed [9, 19]: 50; Plant response rating, Kochia (kochia (Kochia scoparia) [10]; [19]): 50; Plant response rating, Galium [12, 19]: 30; Plant response rating, Foxtail, Giant ([13]; 31 g ai/ha): 40; Plant response rating, Ryegrass, Italian [14, 19]: 0; Plant response rating, Ryegrass, Italian ([15]; 31 g ai/ha): 0; Plant response rating, Pigweed ([16]; 31 g ai/ha): 0; Plant response rating, Ragweed [17, 19]: 0
5 | FC(F)COc1c(Br)cccc1Oc1ncc(Cl)cn1 [Compound 17] | 0 | 20 | 40 | 0 | 90 | 20 | 0 | 80 | 10 | 100 | 100 | 80 | 30 | 100 | 0 | 10 | 100 | 0 | 0 | 85 | Plant response rating, Ragweed ([1]; 500 g ai/ha): 30; Plant response rating, Barnyardgrass [2, 22]: 90; Plant response rating, Foxtail, Giant [3, 22]: 100; Plant response rating, Wheat [4, 22]: 20; Plant response rating, Kochia (kochia (Kochia scoparia) [5]; 500 g ai/ha): 100; Plant response rating, Corn (corn (Zea mays); [22]): 50; Plant response rating, Barnyardgrass ([7]; 500 g ai/ha): 100; Plant response rating, Blackgrass [8, 22]: 90; Plant response rating, Pigweed [9, 22]: 100; Plant response rating, Kochia (kochia (Kochia scoparia) [10]; [22]): 100; Plant response rating, Galium [12, 22]: 80; Plant response rating, Foxtail, Giant ([13]; 500 g ai/ha): 100; Plant response rating, Ryegrass, Italian [14, 22]: 70; Plant response rating, Ryegrass, Italian ([15]; 500 g ai/ha): 70; Plant response rating, Pigweed ([16]; 500 g ai/ha): 100; Plant response rating, Ragweed [17, 22]: 40

From patent US10485235B2, “Aryloxypyrimidinyl ethers as herbicides” (FMC Corporation, priority 2015, dated 2019)
